Source: US8361964B2, “Growth hormone releasing factor (GRF) analogs and uses thereof” (Theratechnologies Inc., priority 2011, dated 2013)
Where a SMILES comes first, the peptide text is derived from it.

Experiments:
Growth Hormone secretion [1] = test: Growth Hormone secretion in female rats after subcutaneous GRF analog; type: in vivo; conditions: female Sprague-Dawley rats; 10 μg/rat subcutaneous; plasma 0-60 minutes
Source text: (§1) Sprague-Dawley rats (female, weighting from 250 to 300 g) were obtained from Charles River Inc. Animals were used according to a protocol of the Animal Care Committee along with the principles of the Guide for the Care and Use of Experimental Animals of the Canadian Council on Animal Care. The animals were maintained on standard laboratory chow under a 12:12 light:dark cycle. They were kept in groups of 4 rats per cage.
The animals were anesthetized with isoflurane 2.5%. A mid-section opening was made in the neck to expose the carotid artery. The carotid artery was canulated with polypropylene tubing (PE-50) to allow blood withdrawal. After surgical preparation, rats received a subcutaneous injection of GRF analog (10 μg/rat dissolved in 20 mM AcONa+5% mannitol at pH 5). For pharmacodynamics studies, blood samples (400 μL) were collected from 4 to 8 animals per group per time point. Blood samples (400 μl) were collected via the carotid catheter at 0, 10, 20, 30, 45 and 60 minutes after drug injection. Blood was placed into microtainer pre-treated with K3EDTA and immediately centrifuged at 13,000 RPM in a desktop centrifuge for 2 minutes. The plasma was collected and placed into a screw cap Eppendorf™ and quick frozen in liquid nitrogen. The samples were then kept at −80° C. until assayed. Determination of GH levels was performed as described below.
(§2) Rat and mouse plasma samples were vortexed carefully and centrifuged at 9,000 RPM for 2 min at 4° C. The dosage of GH levels was performed using the Rat/Mouse Growth Hormone ELISA kit from Millipore (Cat. # EZRMGH-45K). Sample supernatants were first diluted 20-fold with the GH ELISA assay buffer, and 10 μl of this dilution was added to the ELISA plate with 90 μl of GH EIA assay buffer. The remaining of the procedure was performed according to the manufacturer's instructions, and the data obtained were analyzed using GraphPad Prism™ software.
(§3) The GRF analogs described herein were tested for their ability to induce GH release in female mice and rats. […] The data are presented in Tables III (mice) and IV-V (rats).

Growth Hormone secretion [2] = test: Growth Hormone secretion in female mice after subcutaneous GRF analog; type: in vivo; conditions: female CD-1 mice; 10 μg/mouse subcutaneous; plasma 10 minutes after injection
Source text: as §1, with “CD-1 mice” for “Sprague-Dawley rats”, “20” for “250”, “25” for “300”, “mice” for “rats”
At the day of the experiment, mice received a subcutaneous injection of GRF analog (10 μg/mouse dissolved in 20 mM sodium acetate (AcONa)+5% mannitol at pH 5). 10 minutes after injection, the mice were anesthezied with isolufrane. Blood samples (500 μl) were obtained by intra-cardiac puncture. Blood was placed into microtainer pre-treated with K3EDTA and immediately centrifuged at 13,000 RPM in a desktop centrifuge for 2 minutes. The plasma was collected and placed into a screwcap Eppendorf™ tube and quick frozen in liquid nitrogen. The samples were then kept at −80° C. until assayed. Determination of GH levels was performed as described below.
as §2, §3

SMILES | Mean AUC (GH Area Under the curve, GH concentration over time) (Growth Hormone secretion [1]) | Mean Cmax (ng/ml) of Growth Hormone secretion (Growth Hormone secretion [1]) [ng/mL] | GH levels 10 min (Growth Hormone secretion [2]) [ng/mL]
CC[C@H](C)[C@H](NC(=O)[C@H](C)NC(=O)[C@H](CC(=O)O)NC(=O)[C@@H](C)NC(=O)[C@@H](N)Cc1ccc(O)cc1)C(=O)N[C@@H](Cc1ccccc1)C(=O)N[C@H](C(=O)N[C@@H](CC(=O)O)C(=O)N[C@@H](CO)C(=O)N[C@@H](Cc1ccc(O)cc1)C(=O)N[C@@H](CCCNC(=N)N)C(=O)N[C@@H](CCCCN)C(=O)N[C@H](C(=O)N[C@@H](CC(C)C)C(=O)N[C@@H](C)C(=O)N[C@@H](CCC(N)=O)C(=O)N[C@@H](CC(C)C)C(=O)N[C@@H](CCCCN)C(=O)N[C@@H](CC(C)C)C(=O)N[C@@H](CCCNC(=N)N)C(=O)N[C@@H](CCC(N)=O)C(=O)N[C@@H](CC(=O)O)C(=O)N[C@H](C(=O)N[C@@H](CC(C)C)C(=O)N[C@@H](C)C(=O)N[C@@H](CCCNC(=N)N)C(=O)N[C@@H](C)C(=O)N[C@@H](C)C(=O)N[C@@H](CCCNC(=N)N)C(=O)N[C@@H](C)C(=O)N[C@@H](C)C(=O)N[C@@H](CCCNC(=N)N)C(N)=O)[C@@H](C)CC)C(C)C)[C@@H](C)O [SEQ ID NO: 29, Y-a-DAIFTDSYRKVLAQLKLRQDILARAARAAR-NH2] (HELM PEPTIDE1{Y.[dA].D.A.I.F.T.D.S.Y.R.K.V.L.A.Q.L.K.L.R.Q.D.I.L.A.R.A.A.R.A.A.R.[am]}$$$$V2.0) | 9442 | 466.7 | 457.7
CC[C@H](C)[C@H](NC(=O)[C@H](C)NC(=O)[C@H](CC(=O)O)NC(=O)[C@@H](C)NC(=O)[C@@H](N)Cc1ccc(O)cc1)C(=O)N[C@@H](Cc1ccccc1)C(=O)N[C@H](C(=O)N[C@@H](CC(=O)O)C(=O)N[C@@H](CO)C(=O)N[C@@H](Cc1ccc(O)cc1)C(=O)N[C@@H](CCCNC(=N)N)C(=O)N[C@@H](CCCCN)C(=O)N[C@H](C(=O)N[C@@H](CC(C)C)C(=O)N[C@@H](C)C(=O)N[C@@H](CCC(N)=O)C(=O)N[C@@H](CC(C)C)C(=O)N[C@@H](CCCCN)C(=O)N[C@@H](C)C(=O)N[C@@H](CCCNC(=N)N)C(=O)N[C@@H](CCC(N)=O)C(=O)N[C@@H](CC(=O)O)C(=O)N[C@H](C(=O)N[C@@H](CC(C)C)C(=O)N[C@@H](CO)C(=O)N[C@H](CCCNC(=N)N)C(N)=O)[C@@H](C)CC)C(C)C)[C@@H](C)O [SEQ ID NO: 21, Y-a-DAIFTDSYRKVLAQLKARQDILS-r-NH2] (HELM PEPTIDE1{Y.[dA].D.A.I.F.T.D.S.Y.R.K.V.L.A.Q.L.K.A.R.Q.D.I.L.S.[dR].[am]}$$$$V2.0) | 3130 | 135.9 | 104.4
CC/C=C/CC(=O)N[C@@H](Cc1ccc(O)cc1)C(=O)N[C@@H](C)C(=O)N[C@@H](CC(=O)O)C(=O)N[C@@H](C)C(=O)N[C@H](C(=O)N[C@@H](Cc1ccccc1)C(=O)N[C@H](C(=O)N[C@@H](CC(=O)O)C(=O)N[C@@H](CO)C(=O)N[C@@H](Cc1ccc(O)cc1)C(=O)N[C@@H](CCCNC(=N)N)C(=O)N[C@@H](CCCCN)C(=O)N[C@H](C(=O)N[C@@H](CC(C)C)C(=O)N[C@@H](C)C(=O)N[C@@H](CCC(N)=O)C(=O)N[C@@H](CC(C)C)C(=O)N[C@@H](CO)C(=O)N[C@@H](C)C(=O)N[C@@H](CCCNC(=N)N)C(=O)N[C@@H](CCC(N)=O)C(=O)N[C@@H](CC(=O)O)C(=O)N[C@H](C(=O)N[C@@H](CCSC)C(=O)N[C@@H](CO)C(=O)N[C@@H](CCCNC(=N)N)C(N)=O)[C@@H](C)CC)C(C)C)[C@@H](C)O)[C@@H](C)CC [SEQ ID NO: 44, Trans-3-hexenoyl-YADAIFTDSYRKVLAQLSARQDIMSR-NH2] (HELM PEPTIDE1{[CC/C=C/CC(=O)[*:2]].Y.A.D.A.I.F.T.D.S.Y.R.K.V.L.A.Q.L.S.A.R.Q.D.I.M.S.R.[am]}$$$$V2.0) | 984 | 44.2 | 15.2
CC/C=C/CC(=O)N[C@@H](Cc1ccc(O)cc1)C(=O)N[C@@H](C)C(=O)N[C@@H](CC(=O)O)C(=O)N[C@@H](C)C(=O)N[C@H](C(=O)N[C@@H](Cc1ccccc1)C(=O)N[C@H](C(=O)N[C@@H](CC(=O)O)C(=O)N[C@@H](CO)C(=O)N[C@@H](Cc1ccc(O)cc1)C(=O)N[C@@H](CCCNC(=N)N)C(=O)N[C@@H](CCCCN)C(=O)N[C@H](C(=O)N[C@@H](CC(C)C)C(=O)N[C@@H](C)C(=O)N[C@@H](CCC(N)=O)C(=O)N[C@@H](CC(C)C)C(=O)N[C@@H](CO)C(=O)N[C@@H](C)C(=O)N[C@@H](CCCNC(=N)N)C(=O)N[C@@H](CCC(N)=O)C(=O)N[C@@H](CC(=O)O)C(=O)N[C@H](C(=O)N[C@@H](CC(C)C)C(=O)N[C@@H](CO)C(=O)N[C@H](CCCNC(=N)N)C(N)=O)[C@@H](C)CC)C(C)C)[C@@H](C)O)[C@@H](C)CC [SEQ ID NO: 46, Trans-3-hexenoyl-YADAIFTDSYRKVLAQLSARQDILS-r-NH2] (HELM PEPTIDE1{[CC/C=C/CC(=O)[*:2]].Y.A.D.A.I.F.T.D.S.Y.R.K.V.L.A.Q.L.S.A.R.Q.D.I.L.S.[dR].[am]}$$$$V2.0) | 1453 | 57.3 | 10.6
CC[C@H](C)[C@H](NC(=O)[C@H](C)NC(=O)[C@H](CC(=O)O)NC(=O)[C@@H](C)NC(=O)[C@@H](N)Cc1ccc(O)cc1)C(=O)N[C@@H](Cc1ccccc1)C(=O)N[C@H](C(=O)N[C@@H](CC(=O)O)C(=O)N[C@@H](CO)C(=O)N[C@@H](Cc1ccc(O)cc1)C(=O)N[C@@H](CCCNC(=N)N)C(=O)N[C@@H](CCCCN)C(=O)N[C@H](C(=O)N[C@@H](CC(C)C)C(=O)N[C@@H](C)C(=O)N[C@@H](CCC(N)=O)C(=O)N[C@@H](CC(C)C)C(=O)N[C@@H](CCCCN)C(=O)N[C@@H](C)C(=O)N[C@@H](CCCNC(=N)N)C(=O)N[C@@H](CCC(N)=O)C(=O)N[C@@H](CC(=O)O)C(=O)N[C@@H](CC(C)C)C(=O)N[C@@H](CC(C)C)C(=O)N[C@@H](C)C(=O)N[C@@H](CCCNC(=N)N)C(=O)N[C@@H](C)C(=O)N[C@@H](C)C(=O)N[C@@H](CCCNC(=N)N)C(=O)N[C@@H](C)C(=O)N[C@@H](C)C(=O)N[C@@H](CCCNC(=N)N)C(N)=O)C(C)C)[C@@H](C)O [SEQ ID NO: 30, Y-a-DAIFTDSYRKVLAQLKARQDLLARAARAAR-NH2] (HELM PEPTIDE1{Y.[dA].D.A.I.F.T.D.S.Y.R.K.V.L.A.Q.L.K.A.R.Q.D.L.L.A.R.A.A.R.A.A.R.[am]}$$$$V2.0) | 12282 | 664.1 | 493.3
CC/C=C/CC(=O)N[C@@H](Cc1ccc(O)cc1)C(=O)N[C@@H](C)C(=O)N[C@@H](CC(=O)O)C(=O)N[C@@H](C)C(=O)N[C@H](C(=O)N[C@@H](Cc1ccccc1)C(=O)N[C@H](C(=O)N[C@@H](CC(=O)O)C(=O)N[C@@H](CO)C(=O)N[C@@H](Cc1ccc(O)cc1)C(=O)N[C@@H](CCCNC(=N)N)C(=O)N[C@@H](CCCCN)C(=O)N[C@H](C(=O)N[C@@H](CC(C)C)C(=O)N[C@@H](C)C(=O)N[C@@H](CCC(N)=O)C(=O)N[C@@H](CC(C)C)C(=O)N[C@@H](CCCCN)C(=O)N[C@@H](C)C(=O)N[C@@H](CCCNC(=N)N)C(=O)N[C@@H](CCC(N)=O)C(=O)N[C@@H](CC(=O)O)C(=O)N[C@H](C(=O)N[C@@H](CC(C)C)C(=O)N[C@@H](C)C(=O)N[C@@H](CCCNC(=N)N)C(=O)N[C@@H](C)C(=O)N[C@@H](C)C(=O)N[C@@H](CCCNC(=N)N)C(=O)N[C@@H](C)C(=O)N[C@@H](C)C(=O)N[C@@H](CCCNC(=N)N)C(N)=O)[C@@H](C)CC)C(C)C)[C@@H](C)O)[C@@H](C)CC [SEQ ID NO: 31, Trans-3-hexenoyl-YADAIFTDSYRKVLAQLKARQDILARAARAAR-NH2] (HELM PEPTIDE1{[CC/C=C/CC(=O)[*:2]].Y.A.D.A.I.F.T.D.S.Y.R.K.V.L.A.Q.L.K.A.R.Q.D.I.L.A.R.A.A.R.A.A.R.[am]}$$$$V2.0) | 9093 | 459.9 | 563.6
